{
  "source": "paper PMC8333425",
  "about": "“Discovery of a dual Ras and ARF6 inhibitor from a GPCR endocytosis screen” (Nature Communications, 2021)",
  "key": {"AT1R": {"test_system": "AT1R", "test": "Endosomal BRET assay of AngII-mediated AT1R internalization (AT1R-RlucII / Endo-rGFP; HTS, validation, concentration-response)", "type": "cell-based, human", "excerpt": "We performed a HT campaign in HEK293 cells using the bystander endosomal BRET sensor, which consists of a Renilla luciferase (RlucII)-tagged AT1R and an acceptor renilla GFP (rGFP) anchored to endosomes through an Endofin-FYVE (Endo-rGFP) domain[12]. AngII-mediated trafficking of AT1R to endosomes was screened against commercial libraries of ~115,000 small molecules (Fig. 1a and Supplementary Data 1). Because our assay is based on luminescence and fluorescence, we excluded 6610 compounds that quenched more than 50% of the luciferase or GFP signals. After excluding 5 AT1R antagonists, we conserved hit compounds blocking by more than 40%, as well as those potentiating by more than 100% receptor internalization. From this collection of 943 compounds, a second validation on AT1R internalization was performed using the same BRET assay, as well as on the agonist-mediated B2R internalization, this time using B2R-RlucII and Endo-rGFP. Only compounds that were revalidated on AT1R and affected B2R endocytosis were kept, which included forty hits (20 potentiators and 20 inhibitors) (Fig. 1b and Supplementary Data 2). We focused on inhibitors that were commercially available at the beginning of the project and tested their cell toxicity by microscopy, looking at cells expressing B2R tagged with YFP, which highlights cell contours and potential morphological changes, such as rounding up of cells following treatment with 50 μM of the compounds that may have indicated cell death. None of the inhibitors tested caused abnormal cell morphological changes when cells were treated with compounds as compared to DMSO-treated cells. Inhibitors were also assessed in terms of structure novelty, derivatization potential, and commercial availability of analogs (within 95–98% similarity from Tanimoto metric, Sci-Finder, https://scifinder-n.cas.org), for structure-activity relationship studies (SAR). They were scored 1–5, from best to worst. We excluded compounds with potential nucleophilic reactivity (e.g., Michael addition: compounds 7, 26, and 27), those reported to have biological activities (compounds 8, 20, 25, 30, and 35) and/or showing autofluorescence (compound 26). Compound 19 ranked high, but only had one other molecule with a similar structure available. Although other molecules could be interesting in their own rights as endocytosis inhibitors (e.g., compounds 1, 9, 11, 12, 13, 24, 31, and 37), we focused on compound 21 (Fig. 1c) because not only did it rank high in our analysis, but it was also the only compound with substantially more similar analogs commercially available at the time of these investigations. In the screen and the follow-up validation assay, 21 inhibited more than 50% AT1R internalization and more than 65% B2R internalization (Supplementary Data 2). […] Because β-arrestins are critically involved in GPCR endocytosis and trafficking in cells, we assessed 21’s effects on β-arrestins’ recruitment to AT1R and B2R at the PM using a BRET assay, as well as their trafficking into endosomes by microscopy.\nThe chemical library used for initial screening was from Chembridge DiverSet™ (60,000 compounds), Maybridge HitFinder™ (16,000 compounds), Maybridge (selected, 16,000 compounds), SPECS (selected, 16000 compounds), Microsource Discovery Spectrum (2000 compounds), Biomol (natural products, 500 compounds), Prestwick (commercialized products, 1120 compounds), SIGMA LopacTM (1280 compounds) and internal collection (synthesized at Université de Montréal-IRIC, ~4000 compounds). Compounds were all assigned an Université de Montréal number (UM) for internal use. Screen was performed at IRIC HTS facility. KINOMEscan™ profiling was serviced by Eurofin/DiscoverX (San Diego, USA).\nHEK293SL cells were seeded at a density of 7.5 × 10^5 cells per 100-mm dish and 24 h later, transiently transfected as such. […]"}, "MDA-MB-231 cells [1]": {"test_system": "MDA-MB-231 cells", "test": "Cell proliferation assay (IncuCyte confluence), MDA-MB-231", "type": "cell-based, human", "method": "Cell proliferation was measured by a label-free, non-invasive cellular confluence assay using IncuCyte Live-Cell Imaging Systems (Essen Bioscience, Ann Arbor, MI, USA). MDA-MB-231 breast cancer and A549 lung carcinomas cells (1500 cells in 150 μl/well) were seeded overnight on a clear 96-well plate. Twenty-four hours later, the cells were treated with 0.1% DMSO, or different concentrations of Rasarfin (as indicated), or 10 µM of 21.4 or 21.8 for 96 h total. The plate was placed in an XL-3 incubation chamber maintained at 37 °C and the cells were photographed using a ×4 objective, every 3 h for 4 days. Cell confluence was calculated using IncuCyte S3 software (2019A) and cell proliferation was expressed as an increase in the percentage of confluence. Experiments were done in triplicate and repeated three times."}, "MDA-MB-231 cells [2]": {"test_system": "MDA-MB-231 cells", "test": "Cell viability assay (MTT), MDA-MB-231", "type": "cell-based, human", "conditions": "for cell viability (MTT signal): S_Fig12f, listed as Comp 21.8", "method": "MDA-MB-231 breast cancer cells and A549 lung carcinomas (1500 cells in 150 μl/well) were seeded overnight on a clear 96-well plate. Twenty-four hours later, the cells were treated with 0.1% DMSO, or different concentrations of Rasarfin (as indicated), or 10 µM of 21.4, 21.8 (MDA-MB-231 breast cancer cells) or Doxorubicin for the indicated times at 37 °C. At each time point, 10 μl of 5 mg/ml MTT was added to each well and the plates were incubated for an additional 4 h at 37 °C. The absorbance at 590 nm was measured by plate reader. Experiments were done in triplicate and repeated three times."}, "H-Ras": {"molecular_target": "H-Ras (Homo sapiens, UniProt P01112)", "sequence (P01112 whole entry)": "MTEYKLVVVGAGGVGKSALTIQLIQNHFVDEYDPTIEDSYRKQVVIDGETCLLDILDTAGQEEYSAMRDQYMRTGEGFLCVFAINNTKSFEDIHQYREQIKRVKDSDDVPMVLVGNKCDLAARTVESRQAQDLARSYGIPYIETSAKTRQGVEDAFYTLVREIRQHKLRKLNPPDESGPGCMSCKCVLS", "test": "In vitro mant-GTP exchange assay, purified H-Ras with purified SOS1", "type": "biochemical", "parameters": "the cDNA of H-Ras (full length) was obtained by RT-PCR of HEK293SL; GST (N); host or cells: E. coli BL21", "method": "Ras activity was assessed in a 384-well black bottom plate using the mant-GTP exchange factor assay that measures the uptake of the fluorescent nucleotide analog N-methylanthraniloyl-GTP (mant-GTP) into GTPases. For Ras activation, 2X exchange buffer, 1.66 μg of purified pGEX-6P-1-H-Ras or pGEX-6P-1-K-Ras-WT or pGEX-6P-1-K-Ras-Y32A were added per well in presence of DMSO, different concentrations of Rasarfin (as indicated) or 50 µM of compounds 21.4, 21.7, or 21.8. Using the Infinite 200 Pro plate reader (Tecan) with filters set at 360 nm and 440 nm for detecting the excitation and emissions, respectively, and temperature set at 20 °C, 5 readings were recorded every 5 s before the addition of either H2O, 40 mM EDTA or 0.66 μg purified SOS1. The fluorescence of mant-GTP uptake was measured every 30 sec for 30 min and quantified as the delta relative fluorescence units (RFU), which was calculated as the RFU post-addition minus the 5 averaged RFU pre-addition, per condition."}},
  "note": "“And” between values parts separate entries of the source, which are not always exact repeats. Identical values can stand only once.",
  "data": [
    {"smiles": "CC(C)C(=O)N1CCN(c2ccc(NC(=O)c3cc4ccccc4o3)cc2Cl)CC1", "note": "[Compound 21]", "values": [
      {"measurement": "block of AT1R internalization", "setting": "AT1R; 21 at 50 µM", "value": "around 90%"},
      {"measurement": "Mean Diff. DMSO vs. compound (Fig.8a, Dunnett's multiple comparisons test)", "setting": "AT1R; DMSO = 100", "value": 49.06},
      {"measurement": "IC50", "setting": "AT1R; Homo sapiens, AngII, into endosomes, read-out: IC50 for inhibition of AT1R internalization", "value": 10, "unit": "µM"},
      {"measurement": "AT1R internalization into endosomes, ligand-promoted BRET (Mean)", "setting": "AT1R; Log [Comp21] (M) -4.3", "value": "13.6921 percent compared to DMSO"},
      {"measurement": "AT1R internalization into endosomes, ligand-promoted BRET (Mean)", "setting": "AT1R; Log [Comp21] (M) -4.6", "value": "24.3306 percent compared to DMSO"},
      {"measurement": "AT1R internalization into endosomes, ligand-promoted BRET (Mean)", "setting": "AT1R; Log [Comp21] (M) -5", "value": "74.1156 percent compared to DMSO"},
      {"measurement": "AT1R internalization into endosomes, ligand-promoted BRET (Mean)", "setting": "AT1R; Log [Comp21] (M) -5.3", "value": "91.7102 percent compared to DMSO"},
      {"measurement": "AT1R internalization into endosomes, ligand-promoted BRET (Mean)", "setting": "AT1R; Log [Comp 21] (M) -6", "value": "95.8484 percent compared to DMSO"},
      {"measurement": "AT1R internalization into endosomes, ligand-promoted BRET (Mean)", "setting": "AT1R; Log [Comp21] (M) -6.3", "value": "92.6647 percent compared to DMSO"},
      {"measurement": "AT1R internalization into endosomes, ligand-promoted BRET (Mean)", "setting": "AT1R; Log [Comp 21] (M) -7", "value": "100.935 percent compared to DMSO"},
      {"measurement": "AT1R Confirmation Inhibition (%DMSO)", "setting": "AT1R; confirmation, two experiments, negative = potentiation", "value": 60.3475, "unit": "%DMSO"},
      {"measurement": "AT1R Primary Screen Inhibition (%DMSO)", "setting": "AT1R; primary screen, negative = potentiation", "value": 53.93, "unit": "%DMSO"},
      {"measurement": "inhibition of AT1R internalization", "setting": "AT1R; screen and follow-up validation assay", "value": "more than 50%"},
      {"measurement": "MDA-MB-231 cell growth (confluency)", "setting": "MDA-MB-231 cells [1]; various concentrations of Rasarfin", "value": "dose-dependent reduction in cell growth over time"},
      {"measurement": "MDA-MB-231 cell viability (MTT)", "setting": "MDA-MB-231 cells [2]; Doxorubicin 10 µM", "value": "cell viability was not affected"},
      {"measurement": "metabolic activity of MDA-MB-231 cells (MTT)", "setting": "MDA-MB-231 cells [2]; after 48 and 72 h of treatment, compared to DMSO", "value": "modestly decreased in a dose-dependent manner the metabolic activity of cancer cells"},
      {"measurement": "uptake of mant-GTP into purified H-Ras in presence of SOS1", "setting": "H-Ras; different concentrations", "value": "inhibited in a dose-dependent manner the uptake of GTP into Ras"}
    ]},
    {"smiles": "CCCC(=O)N1CCN(c2ccc(NC(=O)c3cc4ccccc4o3)cc2Cl)CC1", "note": "[Compound 21.8]", "values": [
      {"measurement": "inhibition of AT1R internalization into endosomes (Fig. 8a)", "setting": "AT1R; 50 μM", "value": "loss of compounds’ efficacy to inhibit AT1R internalization"},
      {"measurement": "MDA-MB-231 cell proliferation (confluency)", "setting": "MDA-MB-231 cells [1]; 10 µM", "value": "inhibited cell proliferation"},
      {"measurement": "metabolic activity of MDA-MB-231 cells (MTT)", "setting": "MDA-MB-231 cells [2]; 10 µM", "value": "moderately decreasing the metabolic activity of cancer cells"},
      {"measurement": "cell viability (MTT signal)", "setting": "MDA-MB-231 cells [2]; 24h", "value": "0.2449 and 0.2125 and 0.1916"},
      {"measurement": "cell viability (MTT signal)", "setting": "MDA-MB-231 cells [2]; 48h", "value": "0.2769 and 0.2869 and 0.2058"},
      {"measurement": "cell viability (MTT signal)", "setting": "MDA-MB-231 cells [2]; 72h", "value": "0.2794 and 0.3667 and 0.3826"},
      {"measurement": "Ras exchange activity, mant-GTP loading into H-Ras with SOS1 (Fig. 8c)", "setting": "H-Ras; 50 μM", "value": "inhibited Ras exchange activity"}
    ]}
  ]
}
